The results in this text go back to patent US5179109A (priority 1988, dated 1993).

Assay [1] has as its system site of PCP. In words: Affinity for the PCP site, competition with (^3 H)PCP on rat brain homogenates. The assay is classed as binding. The settings on record: rat brain homogenate, pH 7.7, 25° C., 1 nmole tritiated ligand.
In assay [2] the target is cerebral cholinergic muscarinic receptor. The assay is classed as binding, rat. The conditions noted are these: for IC50: rat brain homogenate, read-out: ^3 HQNB IC50; for ^3 HQNB/^3 HTCP: ratio of IC50.
Assay [3] has as its system Swiss mice. The assay can be described thus: Simple rotary bar test (dose at which 50% of the animals drop). The assay is classed as in vivo. The conditions noted are these: for ED50: Mus musculus, sc. Here is the method:
In this example, the properties of compounds 1 to 5 and 8 to 11 are tested on Swiss mice.
Different doses of the compounds to be tested are administered subcutaneously to the mice and the latter are then placed in batches of 10 on a rotary bar, being separated from one another by separating disks. This bar is made from scraped wood, has a diameter of 3 cm and is moved horizontally with a uniform circular movement about its axis at a speed of 10 rpm.
Determination takes place of the ED50, which is the dose at which 50% of the animals drop, the dose being expressed in mg/kg.

Assay [4] relates to cortical cells. The assay can be described thus: Protection of cortical cells in vitro against acute glutamate damage. The assay is classed as cell-based, rat. Also on record: key: ++: severe damage; +: partial protection; -: no damage. The settings on record: 24 h after 5 min exposure to glutamate. The method, then: (§1) This example illustrates the effect of the arylcyclohexylamines according to the invention on in vitro cultures of rat brain cells as a neuroprotector against acute attacks caused by the presence of glutamate.
(§2) Cortical and hippocampal neuron cultures were prepared from the fetuses of rats aged from 17 to 18 days. The hemispheres or hippocampi are dissected and immersed in a buffer containing EDTA (Versene) for 10 min. The tissues are then mechanically dissociated in a saline PUCK solution free from calcium and magnesium and centrifuged at 70 g for 10 min. The centrifuging deposit is resuspended in a culture medium constituted by 60% of the minimum essential Eagle medium (MEM), 25% of a saline Hank solution, 5% of human serum, 5% of calf foetus serum, 5% of embryo extract and which are complemented with 6% glucose. The cells are introduced at a density of 10^6 cells per ml into 24 Wells previously coated with polylysine D. The cultures are allowed to grow for 3 weeks, […] of the culture medium being renewed every 3 days. The test is carried out in the following way. Glutamate dissolved in 10 μl of MEM is added to the medium in order to obtain a final glutamate concentration of 5·10^-4 M. After exposure for 5 min, the medium is changed. For studying the antagonist derivatives of the glutamate, to the culture medium is added the compound to be test in 10 μl of MEM in order to obtain a final concentration of compound of 200, 20 or 0.2·10^-6 M. Five minutes later, glutamate is added to the medium and then the medium is replenished after exposure for 5 minutes. The protected and unprotected cultures are then examined and photographed at intervals between 30 min and 24 h.

The test system of assay [5] is cortical and hippocampal neurons. In words: Protection of cortical and hippocampal neuron cultures against glutamate. The assay is classed as cell-based, rat. The method, then:
as §1, §2

Assay [6] deals with site of TCP. In words: Affinity for the TCP site, competition with (^3 H)TCP on rat brain homogenates. The assay is classed as binding. The settings on record: rat brain homogenate, pH 7.7, 25° C., 1 nmole tritiated ligand; read-out: ^3 HTCP IC50.
Assay [7] has as its system synaptosomal striatal (^3 H)DA capture. The assay can be described thus: Inhibition test of the synaptosomal striatal sample (capture) of (^3 H)DA. The assay is classed as biochemical, Wistar rats. The settings on record: for IC50: rat striatal synaptosomes, 5 nM (^3 H)DA, 5 min at 30° C., pH 7.4, read-out: ^3 HDA IC50; for ^3 HDA/^3 H-TCP: ratio of IC50. The method, then: This test is carried out according to the method used by Vignon and Lazdunski operating in the following way. Wistar rats weighing 200 to 250 g are killed by cervical dislocation. Their brains are rapidly removed and the striae dissected on ice. The striae are then homogenized with a Teflon glass Potter homogenizer in 50 volumes of tris HCl 10 mM buffer containing 0.32M of sucrose at pH 7.4 and they are centrifuged at 1000 g for 10 min. The supernatants are further centrifuged at 10000 g for 20 min. The resulting deposits P2 containing the crude synaptosomes are used without supplementary purification.
The synaptosomes are balanced with the compound to be tested for 30 min at 30° C. in the Ringer medium (mM: 140 NaCl, 5 KCl, 2.6 CaCl2, 1.3 MgSO4, 10 tris-HCl, pH=7.4)+200 μM of pargyline. This is followed by the addition of (^3 H)DA labelled dopamine at a final concentration of 5 nM for 5 min at 30° C. and sampling is interrupted by filtration of the incubate (150 μl) on GF/B filters. The non-specific sample is measured at 4° C. in parallel incubations and is deducted from the total sample at 30° C. The IC50 is the compound concentration preventing 50% of the specific capture compared with the control in the absence of an inhibitor.

The subject of assay [8] is hippocampal cells. The assay can be described thus: Protection of hippocampal cells in vitro against acute glutamate damage. The assay is classed as cell-based, rat. Also on record: key: ++: severe damage; +: partial protection; -: no damage. The conditions noted are these: 24 h after 5 min exposure to glutamate. Here is the method: as §1, §2
Assay [9] deals with cortical and hippocampal neurons. The assay can be described thus: In vitro neuron culture survival after 2 months, count of neurons (Example 23). The assay is classed as cell-based, rat. The conditions noted are these: single dose at start of third week; TCP 2.5 and 20, compound 9 and MK801 2.5 and 5 μmole/l; control 50 neurons/mm^2. The method, then:
This example also illustrates the effect of the arylcyclohexylamines according to the invention on the in vitro neuron culture survival. As in example 21, cortical and hippocampal neuron cultures are prepared. At the start of the third culturing week, the cells are treated with a single dose of the compound to be tested and culturing is continued for two months. At the end of this period, the cells which were fixed and dyed to reveal the specific enolase of the neurons are subject to counts in order to determine the quantity of cells per surface unit.
The results obtained are given in FIG. 1, which is a histogram indicating the number of cells/mm^2 which survived after 2 months culturing.
The results are given for the control, i.e. for untreated cultures, cultures treated with 2.5 and 20 μmole/l of TCP, cultures treated by compound no. 9 at concentrations of 2.5 and 5 μmole/l and cultures treated by compound MK801 at concentrations of 2.5 and 5 μmole/l. Compound MK801, which is known to have a neuroprotection activity, is (+)-methyl-5-dihydro-10,11(5H)dibenzo(A,D) cyclohepteneimine-5,10 of formula: [drawing 38] From FIG. 1 it can be seen that the control cultures, after surviving for 2 months, on average contain 50 neurons/mm^2. The treated cultures, no matter what the compound and dose used, contain more than 500 neurons/mm^2.

Assay [10] addresses T1, receptor of the opiates (Rattus norvegicus, UniProt P33535).
T1 construct: variable concentrations of the tested compound and a rat brain homogenate; from tissue; host or cells: rat brain homogenate
In words: Competition test with ^3 H-DHM for the receptor of the opiates. The assay is classed as binding. The method, then:
In this test, a fixed concentration of ^3 H-DHM labelled morphine was incubated in the presence of variable concentrations of the tested compound and a rat brain homogenate. The concentration of the compound preventing the fixing of 50% of ^3 H-DHM (IC50) is a measure of the affinity of the compound for the receptor of the opiates. The latter also gives the results obtained with PCP and TCP, as well as the ratios H^3 DA/^3 H-TCP, ^3 HQNB/^3 H-TCP and ^3 HDHM/^3 HTCP obtained with the different tested compounds.

Setting [11] is: Swiss mice, subcutaneous, dose at which 50% of the animals drop, read-out: ED50.

Read-outs that look alike come from different tables or passages of the source.

What is called IC50 is the midpoint of a concentration-inhibition curve. As usually defined, the ED50 is the dose that gives a 50% effect, or the effect in half of the subjects.

T1 sequence (P33535 whole entry): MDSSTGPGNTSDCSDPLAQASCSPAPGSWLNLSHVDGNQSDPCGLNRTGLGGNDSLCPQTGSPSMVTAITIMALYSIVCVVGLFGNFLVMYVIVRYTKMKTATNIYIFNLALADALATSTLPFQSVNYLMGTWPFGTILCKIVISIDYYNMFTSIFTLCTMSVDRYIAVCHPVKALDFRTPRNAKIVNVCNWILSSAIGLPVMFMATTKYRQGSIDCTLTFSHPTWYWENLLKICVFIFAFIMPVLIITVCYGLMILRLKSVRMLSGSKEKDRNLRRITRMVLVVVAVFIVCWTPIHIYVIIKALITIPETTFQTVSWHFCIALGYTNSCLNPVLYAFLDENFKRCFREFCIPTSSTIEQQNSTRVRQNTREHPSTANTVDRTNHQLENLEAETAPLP

In assay [1], `O[C@H]1CCCC[C@]1(c1ccccc1)N1CCCCC1` (relative stereo) [compound 11, t-hydroxy-2 phenyl-1-r-(piperidino-1)-1 cyclohexane] displayed an IC50 of 1.17 µM. For the same compound, in [2], the concentration for half-maximal inhibition (IC50) was 125 µM and the “^3 HQNB/^3 HTCP” value stood at 106.8. Moreover, the median effective dose (ED50) in [3] (setting [11]) turned out to be 17 mg/kg.
With `C1=CCN(C2(c3cccs3)CCCCC2)CC1` [Compound No. 2, ((tetrahydro-1,2,5,6pyridino)-1)-1 (thienyl-2)-1 cyclohexane], the “Treatment of cortical cells, damage” value in [4] (0.2 μM) is listed as “++”; in assay [4] (2 μM), “+”; in assay [4] (20 μM) it was “-”; in assay [4] (200 μM) it was “-”. The IC50 was determined as 0.017 µM in assay [1], 25 µM in assay [2], 0.026 µM in assay [6] and 4.7 µM in assay [7]. The “^3 HQNB/^3 HTCP” value in assay [2] came out at 961. Moreover, the “protection of the cultures against glutamate” value was “no protection” in [5] (0.2 μmole, 24 h after 5 min exposure to glutamate) and “only a limited protection” in [5] (2 μmole, 24 h after 5 min exposure to glutamate). Also, in assay [5] (20 μmole, 24 h after 5 min exposure to glutamate), the “damage of the cultures by glutamate” value is recorded as “only very slightly damaged”. The “appearance of hippocampal and cortical cell cultures” value in assay [5] (after 24 h, glutamate exposure) is recorded as “appear healthy in the same way as the control cells”. Moreover, in assay [5] (glutamate exposure), the acute swelling result is “less intense”. In [5] (glutamate exposure), the necrosis result is recorded as “completely blocked”. Besides, the ED50 in assay [3] (setting [11]) was found to be 4 mg/kg. The “Treatment of hippocampal cells, damage” value in assay [8] (0.2 μM) is reported as “++”; in assay [8] (2 μM), “+”; in assay [8] (20 μM), “-”; in assay [8] (200 μM) it was “-”.
Regarding `C[C@]12N[C@H](Cc3ccccc31)c1ccccc12` [MK801, (+)-methyl-5-dihydro-10,11(5H)dibenzo(A,D) cyclohepteneimine-5,10, reference compound], the “number of neurons which survived after 2 months culturing” value in assay [9] is listed as “more than 500 neurons/mm^2”.
In the case of `c1ccc(C2(N3CCCCC3)CCCCC2)cc1` [PCP, 1-(1-phenylcyclohexyl)-piperidine, reference compound], the IC50 in assay [10] was determined as 26 µM; in assay [1], 0.25 µM; in [2], 30 µM; in assay [6], 0.2 µM; in assay [7], 0.5 µM. Also, the “^3 HDHM/^3 HTCP” value in assay [10] (ratio of IC50) was 130. Besides, the “^3 HQNB/^3 HTCP” value in assay [2] came out at 150. Further, the 50% effect level in assay [3] (ED50) was put at a dose of 4 mg/kg. The “^3 HDA/^3 H-TCP” value in assay [7] is reported as 2.5.
The compound `CC1CCN(C2(c3ccccc3)CCCCC2)CC1` [compound 1, ((methyl-4 piperidino)-1)-1 phenyl-1 cyclohexane] returned a half-inhibitory concentration (IC50) in assay [1] of 0.4 µM. Further, the 50% effective dose (ED50) in assay [3] (setting [11]) turned out to be 20 mg/kg. In assay [7], the half-inhibitory concentration (IC50) came to 5 µM and the “^3 HDA/^3 H-TCP” value is on record as 125.
On to `C[C@H]1CC[C@@](c2cccs2)(N2CCCC(CO)C2)CC1` (stereo partly drawn) [compound 5, r-(hydroxymethyl-3-piperidino)-1-c-methyl-4 (thienyl-2)-1 cyclohexane], for which the IC50 in assay [1] came out at 0.38 µM. In addition, in assay [2], the half-inhibitory concentration (IC50) was found to be 110 µM and the “^3 HQNB/^3 HTCP” value amounted to 289. The ED50 in assay [3] (setting [11]) turned out to be 8 mg/kg.
In [1], `CC(=O)OCC1CCCN(C2(c3ccccc3)CCCCC2)C1` (stereo not drawn) [compound 6, acetate of ((hydroxymethyl-3-piperidino)-1)-1 phenyl-1 cyclohexane] showed an IC50 of 1.1 µM. Besides, in assay [2], the IC50 turned out to be 140 µM and the “^3 HQNB/^3 HTCP” value was found to be 127.
`C[C@H]1CC[C@@](c2cccc(F)c2)(N2CCCC(CO)C2)CC1` (stereo partly drawn) [compound 7, ((fluoro-3 phenyl)-1)-r-((hydroxymethyl-3 piperidino)-1)-1-c-methyl-4 cyclohexane] registered a 50% inhibitory concentration (IC50) in assay [1] of 4.5 µM. Besides, in assay [2], the IC50 is 760 µM and the “^3 HQNB/^3 HTCP” value came out at 168.
In assay [1], `ClCC1CCCN(C2(c3cccs3)CCCCC2)C1` (stereo not drawn) [compound 8, [(chloromethyl-3 piperidino)-1]-1 (thienyl-2)-1 cyclohexane] returned an IC50 of 0.56 µM. Also, in assay [2], the IC50 was found to be 870 µM and the “^3 HQNB/^3 HTCP” value turned out to be 1553. The ED50 in assay [3] (setting [11]) is 150 mg/kg. The “rotary bar activity, in words” value in [3] (Swiss mice, subcutaneous) is recorded as “low activity compared with the other compounds”.
Turning to `C[C@H]1CC[C@](c2cccs2)(N2CCCCC2)CC1` [compound 10], the IC50 was 0.14 µM in assay [1], 29.3 µM in assay [2], 0.034 µM in [6] and 3.6 µM in assay [7]. Also, the “^3 HQNB/^3 HTCP” value in assay [2] was found to be 862. The ED50 in assay [3] (setting [11]) stood at 19 mg/kg. Moreover, the “^3 HDA/^3 H-TCP” value in assay [7] came out at 105.
